In patent US20250320246A1, “3-AZASTEROID COMPOUNDS FOR THE TREATMENT OF DISEASES RELATED TO MITROCHONDRIAL FUNCTION” (NZP UK LIMITED, priority 2022, published 2025) one finds EC50, Emax and activity data, which are given here for 10 compounds.

Molecules are shown by their SMILES.

For experiment [1], the system named is sporadic PD patient fibroblasts. Put plainly: Mitochondrial membrane potential (MMP, TMRM) in sporadic PD patient fibroblasts. The experiment is classed as cell-based, human. To be noted: Homo sapiens, Fibroblast, 24 h, 3 sporadic PD patient fibroblasts; for EC50: 8-point range 0.06 nM-300 nM; for Emax: max response with highest dose of compound (300 nM), read-out: MMP % of vehicle, top %; for activity at 60 pM: max response with lowest dose of compound (0.06 nM), read-out: MMP % of vehicle, bottom %. On the procedure:
(§1) Primary fibroblast cells were cultured continuously in Glucose based medium (high glucose (4500 mg/L) Dulbecco's Modified Eagle's medium (DMEM; Sigma-Aldrich) supplemented with 10% fetal bovine serum (Sigma-Aldrich), 100 IU/mL penicillin, 100 μg/mL streptomycin (Lonza), 1 mM sodium pyruvate (Sigma-Aldrich) and 50 μg/mL uridine (Sigma-Aldrich)). Unless otherwise stated, 24 hours prior to analysis, the Glucose based medium was exchanged for Galactose based medium (glucose-free DMEM (Gibco) with the same supplementation and in addition, 5 mM galactose (Sigma-Aldrich)). All cells were assessed between passage 6-10.
Fibroblasts were cultured and plated into a greiner black 384 μClear® plate at a concentration of 1000 cells per well in 50 μl of media volume. The plates are left overnight in an incubator to allow the fibroblasts to adhere to the plate surface. The following morning the Glucose based medium is replaced with 25 μl of Galactose based medium. The plates were then dosed with the compounds using an ECHO® 550 liquid handling system. The wells were dosed to provide an 8-point concentration range of 0.06 nM-300 nM of compound. After dosing the wells are topped up with a further 25 μl of Galactose based medium and then left in an incubator for 24 hours. After 24 hours, the medium is removed from the wells and replaced with 25 μl phenol free Minimal essential medium supplemented with 10% FBS, 1% Penicillin-streptomycin, 1% sodium pyruvate, 0.1% uridine, 1% non-essential amino acids and 1% MEM vitamins with 80 nM TMRM (Sigma) and 10 μM Hoechst Stain (Sigma). The plate is returned to the incubator for another hour after which the stain medium is removed and replaced with 25 μl Phenol free MEM. The plate is then imaged using an IN Cell high content microscope (GE Healthcare) with fields of view per well in 2 channels, Cy3 excitation 542 nm, emission 604-64 nm; and the DAPI excitation 350 nm, emission 450-55 nm at 37° C. with CO2. After imaging the plate is disposed of and the images are Data mined using the INCell developer Toolkit (GE Healthcare).
After the assays had been repeated in triplicate per line and compound the data was then inputted into Graph pad Prism 7 software suite where a dose response curve is generated using the default “[Agonist] vs response(three parameters)” equation. […]

Experiment [2] shares this test system. Put plainly: Cellular ATP levels in sporadic PD patient fibroblasts, full ATP assay. The format is cell-based, human. The following applies: Homo sapiens, Fibroblast, 24 h, 3 sporadic PD patient fibroblasts; for EC50: 8-point range 0.06 nM-300 nM; for Emax at 0.3 µM: max response with highest dose of compound (300 nM), read-out: ATP % of vehicle, top %; for activity at 60 pM: max response with lowest dose of compound (0.06 nM), read-out: ATP % of vehicle, bottom %. The method, then:
as §1
The ATP protocol is generally as described in Mortiboys et al 2008. Briefly, fibroblasts were cultured as and plated into white 384 well plates at a concentration of 5000 cells per well in 50 μl of media volume. The plates are left overnight in an incubator to allow the fibroblasts to adhere to the plate surface. The following morning the Glucose based medium is replaced with 25 μl of Galactose based medium. The plates were then spiked with the compounds using a ECHO 550 liquid handling system. The wells were dosed to provide an 8-point concentration range of 0.06 nM-300 nM of compound. After dosing the wells are topped up with a further 25 μl of Galactose based medium and then left in an incubator for 24 hours. Following this incubation, the medium is removed from the plate and the wells are washed twice with sterile PBS. The wells are filled with 25 μl of Sterile PBS followed by 12.5 μl of Lysis solution from the ATPlite™ Luminescence ATP detection assay system (Perkin Elmer), including 16 cell free wells to use as blank controls. The plate is then placed on a rotary shaker for 5 mins at 700 rpm. Following the shaking 12.5 μl of ATP substrate solution (Perkin Elmer) is added to each well and a further 5 min of shaking. The plate is then placed in darkness for 10 minutes prior to reading. Using a PHERAStar® plate reader, luminescence intensity is recorded. Following the ATP assay the plates are immediately assayed for DNA content in a CyQUANT® assay.
Immediately following The ATP assay DNA content is assessed with the CyQUANT® NF Cell Proliferation Assay Kit (ThermoFisher). CyQUANT® buffer is prepared immediately before the assay and is comprised of 1 μl CyQUANT® dye per ml×1 HBSS solution. 12.5 μl of CyQUANT® buffer is added to each well. Plate left in incubator for 1 hour then read on a PHERAStar© Plate reader with excitation at 497 nm and emission at 520 nm.
ATP Quantification for each well is determined using the following formula: […]
After the assays had been repeated in triplicate per line and compound the data was then inputted into Graph pad Prism 7 software suite where a dose response curve is generated using the default “[Agonist] vs response(three parameters)” equation.
From this EC50 values, lowest response and maximal response were taken and used to calculate the Geometric mean between the 5 different lines assessed.

For orientation: EC50 means the concentration needed to bring the measured effect to its halfway point. A higher EC50 goes with a need for much substance. On to `C[C@H](CCC(=O)O)[C@H]1CC[C@H]2[C@@H]3[C@@H](O)C[C@@H]4CN(C(=O)CO)CC[C@]4(C)[C@H]3CC[C@]12C` [Compound 40a, N-Glycolyl-3-aza-7β-hydroxy-5β-cholan-24-oic acid], for which, in experiment [1], a half-maximal response (EC50) required 65.3 nM, the Emax was found to be 106% and the activity at 60 pM amounted to 93.5%. In experiment [2], a half-maximal response (EC50) required 22.8 nM, the Emax at 0.3 µM worked out at 103% and the activity at 60 pM stood at 89.9%.
Regarding `C[C@H](CCCC(=O)O)[C@H]1CC[C@H]2[C@@H]3[C@@H](O)C[C@@H]4CN(C(=O)CO)CC[C@]4(C)[C@H]3CC[C@]12C` [Compound 40b, N-Glycolyl-3-aza-7β-hydroxy-25-homo-5β-cholan-25-oic acid], in experiment [1], the EC50 was 26.1 nM, the Emax came out at 131% and the activity at 60 pM came to 95.3%. In addition, in experiment [2], the EC50 is 19.5 nM, the Emax at 0.3 µM amounted to 130% and the activity at 60 pM amounted to 101%.
In the case of `CC(C)[C@H](N)C(=O)N1CC[C@@]2(C)[C@H](C[C@H](O)[C@@H]3[C@@H]2CC[C@]2(C)[C@@H]([C@H](C)CCCC(=O)O)CC[C@@H]32)C1` [Compound 41b, N-[(2S)-2-Amino-3-methylbutanoyl]-3-aza-7β-hydroxy-25-homo-5β-cholan-25-oic acid hydrotrifluoroacetate], the activity at 60 pM in experiment [1] amounted to 84.6%; in experiment [2] it was 78.9%.
On to `CC[C@H](C)[C@H](N)C(=O)N1CC[C@@]2(C)[C@H](C[C@H](O)[C@@H]3[C@@H]2CC[C@]2(C)[C@@H]([C@H](C)CCC(=O)O)CC[C@@H]32)C1` [Compound 42a, N-[(2S,3S)-2-Amino-3-methylpentanoyl]-3-aza-7β-hydroxy-5β-cholan-24-oic acid hydrotrifluoroacetate], for which, in experiment [1], the EC50 amounted to 130 nM, the Emax came out at 69.2% and the activity at 60 pM amounted to 71.3%. Besides, in experiment [2], the EC50 turned out to be 134 nM, the Emax at 0.3 µM is 64.5% and the activity at 60 pM stood at 89.6%.
On to `CC[C@H](C)[C@H](N)C(=O)N1CC[C@@]2(C)[C@H](C[C@H](O)[C@@H]3[C@@H]2CC[C@]2(C)[C@@H]([C@H](C)CCCC(=O)O)CC[C@@H]32)C1` [Compound 42b, N-[(2S,3S)-2-Amino-3-methylpentanoyl]-3-aza-7β-hydroxy-25-homo-5β-cholan-25-oic acid hydrotrifluoroacetate], for which, in experiment [1], the EC50 was found to be 5.1 nM, the Emax stood at 96.6% and the activity at 60 pM stood at 92.2%. Besides, in experiment [2], the response was half-maximal at 25.4 nM (EC50), the Emax at 0.3 µM is 98.5% and the activity at 60 pM came to 91.3%.
Take `CC(C)C[C@H](N)C(=O)N1CC[C@@]2(C)[C@H](C[C@H](O)[C@@H]3[C@@H]2CC[C@]2(C)[C@@H]([C@H](C)CCC(=O)O)CC[C@@H]32)C1` [Compound 43a, N-[(2S)-2-Amino-4-methylpentanoyl]-3-aza-7β-hydroxy-5β-cholan-24-oic acid hydrotrifluoroacetate]: in experiment [1], the EC50 was found to be 0.2 nM, the Emax was determined as 100% and the activity at 60 pM was found to be 84.1%. For the same compound, in experiment [2], the EC50 worked out at 8.9 nM, the Emax at 0.3 µM was found to be 86% and the activity at 60 pM amounted to 90.2%.
For the compound `CC(C)C[C@H](N)C(=O)N1CC[C@@]2(C)[C@H](C[C@H](O)[C@@H]3[C@@H]2CC[C@]2(C)[C@@H]([C@H](C)CCCC(=O)O)CC[C@@H]32)C1` [Compound 43b, N-[(2S)-2-Amino-4-methylpentanoyl]-3-aza-7β-hydroxy-25-homo-5β-cholan-25-oic acid hydrotrifluoroacetate], in experiment [1], the midpoint of the response, the EC50, lay at 1.1 nM; the Emax was determined as 103%; the activity at 60 pM was determined as 86.9%. Further, the Emax at 0.3 µM in experiment [2] is 80.6%.
`C[C@H](CCC(=O)O)[C@H]1CC[C@H]2[C@@H]3[C@@H](O)C[C@@H]4CN(C(=O)[C@@H](N)Cc5c[nH]c6ccccc56)CC[C@]4(C)[C@H]3CC[C@]12C` [Compound 44a, N-[(2S)-2-Amino-3-(1H-indol-3-yl)propanoyl]-3-aza-7β-hydroxy-5β-cholan-24-oic acid hydrotrifluoroacetate]: in experiment [1], the EC50 came out at 0.09 nM, the Emax stood at 102% and the activity at 60 pM was determined as 73.5%. For the same compound, in experiment [2], it took 0.23 nM to reach a half-maximal effect (EC50), the Emax at 0.3 µM came to 122% and the activity at 60 pM is 65.1%.
For `C[C@H](CCCC(=O)O)[C@H]1CC[C@H]2[C@@H]3[C@@H](O)C[C@@H]4CN(C(=O)[C@@H](N)Cc5c[nH]c6ccccc56)CC[C@]4(C)[C@H]3CC[C@]12C` [Compound 44b, N-[(2S)-2-Amino-3-(1H-indol-3-yl)propanoyl]-3-aza-7β-hydroxy-25-homo-5β-cholan-25-oic acid hydrotrifluoroacetate], in experiment [1], the concentration for a half-maximal effect (EC50) was 0.11 nM, the Emax amounted to 98.8% and the activity at 60 pM turned out to be 77.8%. Besides, in experiment [2], the Emax at 0.3 µM amounted to 98.4%.
As for `C[C@H](CCC(=O)O)[C@H]1CC[C@H]2[C@@H]3[C@@H](O)C[C@@H]4CN(C(=O)[C@@H](N)Cc5ccc(O)cc5)CC[C@]4(C)[C@H]3CC[C@]12C` [Compound 45a, N-[(2S)-2-Amino-3-(4-hydroxyphenyl)propanoyl]-3-aza-7β-hydroxy-5β-cholan-24-oic acid hydrotrifluoroacetate], in experiment [1], the response was half-maximal at 0.18 nM (EC50), the Emax turned out to be 95.1% and the activity at 60 pM worked out at 82.3%. In experiment [2], the EC50 turned out to be 0.25 nM, the Emax at 0.3 µM was determined as 97.2% and the activity at 60 pM amounted to 83.8%.
